Laboratory results from US9752151B2, “Composition for treatment or metastasis suppression of cancers which includes p34 expression inhibitor or activity inhibitor as active ingredient” (THE ASAN FOUNDATION, priority 2013, dated 2017).
One block for each molecule: values may come before it.

Experiments:
PTEN protein [1] = assay: Western blotting after co-transfection of GFP-tagged p34 and NEDD4-1-siRNA/shRNA, 293 cells; assay type: cell-based; conditions: 293 cells co-transfected with GFP-tagged p34; decreased with GFP-tagged p34 alone
Experimental: (§1) The expression levels of each protein were analyzed using Western blotting. The result is illustrated in FIG. 23.

PTEN protein [2] = assay: Western blotting after co-transfection of GFP-tagged p34 and NEDD4-1-siRNA/shRNA, MEF cells; assay type: cell-based, mouse; conditions: MEF cells co-transfected with GFP-tagged p34; decreased with GFP-tagged p34 alone
Experimental: as §1

MDA-MB-231 = assay: Trypan blue dye cell death, MDA-MB-231; assay type: cell-based, human; conditions: MDA-MB-231, per each concentration, 48 hours
Experimental: (§2) Human breast cancer cell lines MDA-MB-231 were treated with the p34 activity inhibitor Compound 27 per each concentration for 48 hours, and then trypan blue dye and Western blotting were performed. The result is illustrated in FIG. 64.

[3] = target: T1, p34 protein and NEDD4-1 protein (Homo sapiens, UniProt Q9UHV2); assay: GST-pull down of p34 and NEDD4-1 proteins binding; conditions: 1 mM or 3 mM, 30° C., 1 hour, purified proteins
T1 construct: made in house; host or cells: E. coli BL-21 (DE3) (printed for GST-p34 in the earlier pull-down)
T1 sequence (Q9UHV2 1-236): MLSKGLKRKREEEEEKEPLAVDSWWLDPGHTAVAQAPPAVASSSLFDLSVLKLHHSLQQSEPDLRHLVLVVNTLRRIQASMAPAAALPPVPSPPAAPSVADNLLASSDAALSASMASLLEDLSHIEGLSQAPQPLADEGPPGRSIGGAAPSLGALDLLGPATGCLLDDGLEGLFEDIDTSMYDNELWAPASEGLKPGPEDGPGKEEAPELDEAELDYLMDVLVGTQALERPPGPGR
Experimental: Purified NEDD4-1 protein and p34 protein were treated with a reaction buffer (20 mM Tris-HCl pH7.5, 120 mM NaCl) and the p34 activity inhibitor Compound 27 in a concentration of 1 mM or 3 mM, and reacted at 30° C. for 1 hour. Thereafter, the reaction was stopped using GST-pull down buffer (20 mM Tris-HCl pH8.0, 500 mM NaCl, 1% Triton X-100, 0.02% BSA, 5 mM mercaptoethanol), and then pulled down with glutathione-sepharose beads at 4° C. Western blotting was performed using anti-His and anti-GST antibodies. The result is illustrated in FIG. 63.

PTEN [4] = assay: PTEN lipid phosphatase activity, MDA-MB-231; assay type: cell-based, human; conditions: MDA-MB-231, 48 hours, OD 650 nm
Experimental: (§3) Also, human breast cancer cell lines MDA-MB-231 were treated with p34 activity inhibitor Compound 27 per each concentration for 48 hours, and cell sap was collected and immunoprecipitation was performed using a PTEN antibody. Thereafter, it was reacted with a reaction buffer solution (100 mM Tris-HCl pH8.0, 10 mM DTT) containing water-soluble diC8-phosphatidylinositol 3,4,5 tri-phosphate at 37° C. for 40 minutes, and only the supernatant was collected to be reacted with Biomol Green solution at room temperature for 30 minutes. Then, PTEN lipid phosphatase activity was measured at OD 650 nm. The result is illustrated in FIG. 65.

PTEN [5] = assay: PTEN lipid phosphatase activity, LS1034; assay type: cell-based, human; conditions: LS1034, 48 hours, OD 650 nm
Experimental: as §3
(§4) The same experiments were performed using human colorectal cancer cell lines LS1034. The results are illustrated in FIGS. 66 and 67.

PTEN [6] = assay: PTEN ubiquitination (PTEN immunoprecipitation, ubiquitin Western blotting) in MDA-MB-231; assay type: cell-based, human; conditions: 1 μM, 24 hours
Experimental: (§5) The p34 activity inhibitor, Compound 27, in a concentration of 1 μM was treated with human breast cancer cell lines MDA-MB-231 and colorectal cancer cell lines LS1034 for 24 hours, and immunoprecipitation was performed using a PTEN antibody. Thereafter, Western blotting was performed using an ubiquitin antibody. The result is illustrated in FIG. 62.

LS1034 = assay: Trypan blue dye cell death, LS1034; assay type: cell-based, human; conditions: LS1034, per each concentration, 48 hours
Experimental: as §2, §4

[7] = tested on: PTEN protein, Akt, caspase3; assay: Western blotting after p34 activity inhibitor, MDA-MB-231; assay type: cell-based, human; conditions: MDA-MB-231, 48 hours
Experimental: as §2

[8] = tested on: PTEN protein, Akt, caspase3; assay: Western blotting after p34 activity inhibitor, LS1034; assay type: cell-based, human; conditions: LS1034, 48 hours
Experimental: as §2, §4

PTEN [9] = assay: PTEN ubiquitination (PTEN immunoprecipitation, ubiquitin Western blotting) in LS1034; assay type: cell-based, human; conditions: 1 μM, 24 hours
Experimental: as §5

GST-PTEN fusion protein [10] = target: T2, GST-PTEN fusion protein (UniProt P60484 1-403); assay: GST pull-down with purified recombinant GST-PTEN, Western blotting (FIG. 8)
T2 construct: Purified recombinant protein; also called purified recombinant GST-PTEN; not shown: GST tag

GST-PTEN fusion protein [11] = target: T2, GST-PTEN fusion protein; assay: GST pull-down of GST-PTEN with lysate of cells expressing Myc-NEDD4-1 and His-p34 (FIG. 11)
Experimental: In order to investigate whether p34 affects PTEN and NEDD4-1 binding, GST-PTEN fusion proteins were incubated with the lysing solution of cells expressing Myc-NEDD4-1 and His-p34, and then GST-pull down assay was performed. As a control group, GST proteins were used. The result is illustrated in FIG. 11.

[12] = target: T3, GST-tagged NEDD4-1 mutant lacking WW1 domain (GST-delWW1) (UniProt P46934-4 1-900, limits assumed); assay: GST pull-down of GST-delWW1 with lysate of cells expressing His-p34 (FIG. 10)
T3 construct: also called NEDD4-1 protein lacking the WW1 domain; not shown: GST tag
T3 sequence (looked up): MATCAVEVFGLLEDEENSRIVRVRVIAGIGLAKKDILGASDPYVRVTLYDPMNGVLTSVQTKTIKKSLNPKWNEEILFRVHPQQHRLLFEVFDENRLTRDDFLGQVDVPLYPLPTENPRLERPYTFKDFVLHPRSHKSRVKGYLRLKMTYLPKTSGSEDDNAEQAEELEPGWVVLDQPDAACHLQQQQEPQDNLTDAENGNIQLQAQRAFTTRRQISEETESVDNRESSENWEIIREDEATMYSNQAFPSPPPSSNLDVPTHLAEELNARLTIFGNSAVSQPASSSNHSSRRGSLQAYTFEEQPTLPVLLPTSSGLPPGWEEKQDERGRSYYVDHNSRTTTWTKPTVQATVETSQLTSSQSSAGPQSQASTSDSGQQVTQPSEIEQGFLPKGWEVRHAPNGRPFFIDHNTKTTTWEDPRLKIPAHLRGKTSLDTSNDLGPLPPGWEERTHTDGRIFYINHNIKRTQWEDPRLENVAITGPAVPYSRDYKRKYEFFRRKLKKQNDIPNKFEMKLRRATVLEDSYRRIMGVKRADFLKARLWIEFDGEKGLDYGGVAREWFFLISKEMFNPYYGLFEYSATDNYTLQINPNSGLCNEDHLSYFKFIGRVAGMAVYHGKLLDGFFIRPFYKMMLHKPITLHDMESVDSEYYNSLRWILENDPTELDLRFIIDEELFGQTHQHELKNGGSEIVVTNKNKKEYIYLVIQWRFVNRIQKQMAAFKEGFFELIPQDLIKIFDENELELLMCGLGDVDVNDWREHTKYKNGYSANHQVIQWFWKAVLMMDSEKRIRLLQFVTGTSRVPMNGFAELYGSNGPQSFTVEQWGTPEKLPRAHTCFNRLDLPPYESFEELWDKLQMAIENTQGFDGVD
Experimental: (2) In order to verify the above result, plasmids containing GST-tagged wild-type NEDD4-1 mutants lacking WW1 domain (GST-delWW1) were prepared. The mutant proteins of NEDD4-1 were incubated with a lysing solution isolated from cells expressing His-p34, and then GST-pull down assay was performed. The result is illustrated in FIG. 10.

T2 sequence (P60484 whole entry, the tested form may be a part): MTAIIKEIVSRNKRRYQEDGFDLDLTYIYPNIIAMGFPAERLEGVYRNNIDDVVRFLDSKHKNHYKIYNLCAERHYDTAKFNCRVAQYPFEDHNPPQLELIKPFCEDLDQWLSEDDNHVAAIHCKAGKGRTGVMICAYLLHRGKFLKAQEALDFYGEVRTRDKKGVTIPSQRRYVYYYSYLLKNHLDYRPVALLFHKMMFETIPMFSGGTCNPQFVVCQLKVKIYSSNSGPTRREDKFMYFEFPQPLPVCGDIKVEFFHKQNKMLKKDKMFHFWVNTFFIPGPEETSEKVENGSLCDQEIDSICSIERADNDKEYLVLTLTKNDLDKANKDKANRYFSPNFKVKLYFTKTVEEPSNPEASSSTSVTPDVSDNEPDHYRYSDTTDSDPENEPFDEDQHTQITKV

Molecule: NEDD4-1-siRNA/shRNA: NEDD4-1-siRNA: 5′-TGGCGATTTGTAAACCGAA-3′ (SEQ ID NO 4) (listed as DNA, chemistry not given here)
levels of PTEN protein (PTEN protein [1]): remained substantially unchanged | levels of PTEN protein (PTEN protein [2]): remained substantially unchanged

Molecule: Cc1[nH]c2ccc(-c3nnc(OCC(=O)NC(C)c4nc5ccccc5[nH]4)o3)cc2c1C (stereo not drawn) [Compound 27]
cell death (MDA-MB-231): cell death was induced | p34 protein and NEDD4-1 protein binding [3]: inhibited the p34 protein and the NEDD4-1 protein binding in a dose dependent manner | PTEN lipid phosphatase activity (PTEN [4]): increased PTEN lipid phosphatase activity | PTEN lipid phosphatase activity (PTEN [5]): increased PTEN lipid phosphatase activity | PTEN ubiquitination (PTEN [6]): inhibiting PTEN ubiquitination | cell death (LS1034): cell death was induced | Akt dephosphorylation [7]: Akt dephosphorylation occurred | PTEN protein [7]: reactivated | caspase3 activation [7]: caspase3 was activated | Akt dephosphorylation [8]: Akt dephosphorylation occurred | PTEN protein [8]: reactivated | caspase3 activation [8]: caspase3 was activated | PTEN ubiquitination (PTEN [9]): inhibiting PTEN ubiquitination

Second part, the molecule after the results:

binding result (GST-PTEN fusion protein [10]): no binding
B1: p34 protein (construct not stated) (other, UniProt Q9UHV2 1-236, looked up)
chain: T1 sequence (Q9UHV2 1-236)
notes: also called purified p34 protein

binding result (GST-PTEN fusion protein [11]): no binding | binding result [12]: no binding
B2: His-tagged p34 (other, UniProt Q9UHV2 1-236, looked up)
chain: T1 sequence (Q9UHV2 1-236)
notes: Expressed in cells and used as lysate; also called His-p34; not shown: His tag
